# Measurements as given in PMC6466480 (Journal of Medicinal Chemistry, 2019).
# Assays:
# [1] = molecular target: T1, human D4R (Homo sapiens, UniProt P21917); test: cAMP inhibition assay; assay type: cell-based; settings: read-out: Emax at D4R (partial agonist)
# T1 sequence (P21917 1-419): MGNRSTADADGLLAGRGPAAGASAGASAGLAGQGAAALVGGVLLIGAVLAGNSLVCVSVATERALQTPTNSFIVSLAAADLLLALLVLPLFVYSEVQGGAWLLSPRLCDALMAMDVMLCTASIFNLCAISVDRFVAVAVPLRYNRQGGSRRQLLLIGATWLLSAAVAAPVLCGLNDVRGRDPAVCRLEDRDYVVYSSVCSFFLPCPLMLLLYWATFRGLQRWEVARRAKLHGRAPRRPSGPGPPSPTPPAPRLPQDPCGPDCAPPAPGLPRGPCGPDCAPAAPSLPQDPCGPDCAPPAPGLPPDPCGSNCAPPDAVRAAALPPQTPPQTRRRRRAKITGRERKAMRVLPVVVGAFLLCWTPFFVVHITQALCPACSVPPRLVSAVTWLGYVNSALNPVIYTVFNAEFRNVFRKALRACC
# [2] = molecular target: human D3R (Homo sapiens, UniProt P35462); test: β-Arrestin recruitment assay; assay type: cell-based; settings: agonist mode; percentage of the maximum dopamine response; CHO-K1
# human D3R, sequence (P35462 whole entry): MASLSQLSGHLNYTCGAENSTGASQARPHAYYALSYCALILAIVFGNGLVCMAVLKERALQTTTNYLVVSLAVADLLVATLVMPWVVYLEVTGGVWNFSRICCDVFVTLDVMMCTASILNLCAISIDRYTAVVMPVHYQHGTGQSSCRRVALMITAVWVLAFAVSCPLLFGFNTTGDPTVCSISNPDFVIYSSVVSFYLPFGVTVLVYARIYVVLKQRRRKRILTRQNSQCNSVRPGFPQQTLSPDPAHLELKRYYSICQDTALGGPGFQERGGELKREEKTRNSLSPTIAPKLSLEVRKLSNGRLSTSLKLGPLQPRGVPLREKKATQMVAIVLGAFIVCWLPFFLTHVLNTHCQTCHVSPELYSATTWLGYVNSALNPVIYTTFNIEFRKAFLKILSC
# [3] = tested on: D4R; settings: initially characterized as a full agonist; cited from earlier work
smiles,measurement,setting,value
"Cc1cccc(NC(=O)CN2CCC(c3ccccn3)CC2)c1 [Compound 1, 2-(4-(pyridin-2-yl)piperidin-1-yl)-N-(m-tolyl)acetamide]",Emax,[1],23 to 62%
same,D3R efficacy β-arr Emax,[2],very low potency and efficacy
same,intrinsic activity at D4R,[3],83%
